Reference: patent US7820197B2, “Percutaneous preparations” (Astellas Pharma Inc., priority 2002, dated 2010)
Like-named read-outs stand apart in the source and are kept apart here. Each block holds one compound with its values, some of them ahead of it.

Assays:
[1] = as compared to control; cited from earlier work
[2] = system: dihydrotachysterol-induced calcification (calciphylaxis); conditions: cited from earlier work
[3] = Percutaneous absorption test of 14C-incadronate aqueous solution; type: in vivo, rat; conditions: in 24 hours after the administration
From the text: The rat abdominal hair was shaved and a round cell (made of acryl, 20 mm in diameter) was fixed on the skin with a medical adhesive. […] During the test, the rat was fixed dorsally under urethane anesthesia. Bone tissue specimens were burnt in a tissue combustion equipment and the radioactivity was counted by a scintillation counter.

[4] = Solubility properties; type: physicochemical

Compound: CC(O)(P(=O)(O)O)P(=O)(O)O [etidronate]
enhancement of penetration effect by decyl methyl sulfoxide [1]: about 6 fold
skin calcium level ([2]; composition of etidronate and penetrating carrier containing decyl methyl sulfoxide): 2.026%
skin calcium level ([2]; etidronate alone dissolved in the penetrating carrier vehicle): 0.067%

Compound: O=P([O-])(O)C(NC1CCCCCC1)P(=O)([O-])O.[Na+].[Na+] [incadronate, disodium incadronate]
concentration in the bone tissues [3]: very high concentration in the bone tissues

solubility in an alkaline solvent ([4]; alkaline solvent): soluble in an alkaline solvent
solubility in an organic solvent ([4]; organic solvent): insoluble even in an organic solvent
solubility in water ([4]; water): practically insoluble in water
Compound: O=P(O)(O)C(O)(Cc1cnc2ccccn12)P(=O)(O)O [minodronic acid, 1-hydroxy-2-(imidazo[1,2-a]pyridin-3-yl)ethylidenebisphosphonic acid]
